Results from patent US20250388568A1, “NLRP3 INHIBITORS” (Kodiak Sciences Inc., priority 2022, published 2025).

The molecules below were run on IL-1β release in U937 cells after NLRP3 activation (assay: IC50 determination of IL-1β release inhibition in U937 cells). Details: Homo sapiens, U-937; PMA-differentiated U937 cells, LPS priming 5 h, nigericin; average of at least three experiments; read-out: IL-1β IC50 (nM) U937 cells.
Assay type: cell-based
Procedure: Example 79: IC50 Determination of IL-1β Release Inhibition in U937 Cells The compounds of the present disclosure were tested for their ability to inhibit the IL-1β release in the U937 cells after NLRP3 activation. U937 cells (U-97 CRL 1593.2) were thawed following ATCC's initial culture procedure. […] The growth medium was composed of RPMI1640 medium (Quality Biological 112-040-101), 10% serum (Corning 35-076-CV), Pen/Strep (GIBCO 15140-122), 10 mM Hepes (Quality Biological 118-089-721), 2 mM Glutamax (GIBCO 35050-061), and 100 μg/mL normocin (Invivogen ant-nr)-Differentiating media was prepared by adding Phorbol 12-myristate 13-acetate (PMA) (AdipoGen AG-CN2-0010-M005) to growth medium. A cell suspension was prepared with differentiating media at 500k cells/ml. With an electronic pipet, 200 ul of cell suspension was added to each well (96w white plate Corning 3903) leaving columns 1 and 2 empty. Plates were left in the biosafety cabinet for 15 min and then placed in incubator for 90 hours. Priming media was prepared with assay medium consisting of RPMI 1640 medium, 10 mM Hepes, 2 mM Glutamax and Pen/Strep plus 1 μg/mL LPS (Invivogen tlrl-3pelps). Differentiating media was manually removed and 80 ul of priming media was added to each well with an electronic pipet. The plates were placed in the incubator for 5 hours. […] DMSO). An hour prior to the end of LPS incubation, a separate 96 deep well plate, Plate B, was prepared with 400 μL of assay media per well, then […] of the stock DMSO solution from Plate A was added to each corresponding well. Plate B was covered to avoid media evaporation. In a 50 mL tube, a solution of nigericin in assay media at 50 uM/mL concentration was prepared. To a new 96 deep well plate, Plate C, 200 μL of this nigericin containing media was dispensed to each well and 1 μL of the test compounds from Plate B to each corresponding well was added. Plate C was covered to avoid media evaporation. After 5 hours of priming, all the media from the LPS treated U937 cells was removed manually. To this plate of primed cells, 80 μL/well test compounds from Plate B (assay media+compound) was added in duplicate columns (5 compounds tested per plate). The plate was placed in an incubator for 30 min. […] The plate was placed back in the incubator for 1 hour. At the end of 1 hour, the supernatant from this test plate was transferred to a new 96 well V bottom polypropylene plate which was frozen immediately at -80° C. The plate was transferred to -20° C. the next day and awaited further determination of cytokine IL-Ip level. The release of IL-1β into the cell media was determined by MSD® Multi-Spot Assay System (V-Plex, IL-1B kit, […]-4). Following the manufacture's protocol and using the Alternate Protocol 3, Dilute-In-Plate protocol specifically, the level of IL-IP in the above collected supernatant plate was measured as electrochemiluminescent signals. Using MSD DISCOVERY WORKBENCH® analysis software, the signals were converted to the concentration of IL-1β in each well. The IC50 values of the compounds were calculated using the Graph Pad Prism software based on the IL-1β concentration determined. The detection range of IL-1β using MSD kit was approximately […] (based on various lots of standards purchased from MSD).

Row | SMILES | IC50 [nM]
1 | CN(C(=O)c1coc(S(=N)(=O)NC(=O)Nc2c3c(cc4c2CCC4)CCC3)c1)[C@H]1C[C@H](N)C1 (some centres unmarked) [Example 16] | > 500
2 | CN(C(=O)c1coc(S(=N)(=O)NC(=O)Nc2c3c(cc4c2CCC4)CCC3)c1)C1CNC1 (centres unmarked) [Example 17, N-(azetidin-3-yl)-5-(N-((1,2,3,5,6,7-hexahydro-s-indacen-4-yl)carbamoyl)sulfamidimidoyl)-N-methylfuran-3-carboxamide] | 50 to 500
3 | N=S(=O)(NC(=O)Nc1c2c(cc3c1CCC3)CCC2)c1cc(CO[C@H]2C[C@H](N)C2)co1 (some centres unmarked) [Example 18, 4-(((1r,3r)-3-aminocyclobutoxy)methyl)-N-((1,2,3,5,6,7-hexahydro-s-indacen-4-yl)carbamoyl)furan-2-sulfonimidamide] | 5 to 50
4 | CC(C)n1nc(S(=N)(=O)NC(=O)Nc2c3c(cc4c2CCC4)CCC3)cc1CN (centres unmarked) [Example 77, 5-(aminomethyl)-N-((1,2,3,5,6,7-hexahydro-s-indacen-4-yl)carbamoyl)-1-isopropyl-1H-pyrazole-3-sulfonimidamide] | 50 to 500
5 | N=S(=O)(NC(=O)Nc1c2c(cc3c1CCC3)CCC2)c1cc(CN2CC3(CC(O)C3)C2)co1 (centres unmarked) [Example 2, N-((1,2,3,5,6,7-hexahydro-s-indacen-4-yl)carbamoyl)-4-((6-hydroxy-2-azaspiro[3.3]heptan-2-yl)methyl)furan-2-sulfonimidamide] | 50 to 500
6 | O=C(Nc1c2c(cc3c1CCC3)CCC2)NS(=O)(=O)c1cc(CN2CC(O)C2)co1 [Example 32, N-((1,2,3,5,6,7-hexahydro-s-indacen-4-yl)carbamoyl)-4-((3-hydroxyazetidin-1-yl)methyl)furan-2-sulfonamide] | 50 to 500
7 | CC(C)n1nc(S(=O)(=O)NC(=O)Nc2c3c(c(F)c4c2CCC4)CCC3)cc1CN1CC[C@H](O)C1 [Example 67, (S)—N-((8-fluoro-1,2,3,5,6,7-hexahydro-s-indacen-4-yl)carbamoyl)-5-((3-hydroxypyrrolidin-1-yl)methyl)-1-isopropyl-1H-pyrazole-3-sulfonamide] | 5 to 50
8 | Cc1cc(S(=O)(=O)NC(=O)Nc2c3c(c(F)c4c2CCC4)CCC3)oc1CN1C[C@H](O)[C@@H](F)C1 [Example 56, N-((8-fluoro-1,2,3,5,6,7-hexahydro-s-indacen-4-yl)carbamoyl)-5-(((3S,4S)-3-fluoro-4-hydroxypyrrolidin-1-yl)methyl)-4-methylfuran-2-sulfonamide] | 5 to 50
9 | CN(Cc1cc(S(=O)(=O)NC(=O)Nc2c3c(c(Cl)c4c2CCC4)CCC3)nn1C)CC1(O)CCC1 [Example 68, N-((8-chloro-1,2,3,5,6,7-hexahydro-s-indacen-4-yl)carbamoyl)-5-((((1-hydroxycyclobutyl)methyl)(methyl)amino)methyl)-1-methyl-1H-pyrazole-3-sulfonamide] | 5 to 50
10 | Cc1oc(S(=O)(=O)NC(=O)Nc2c3c(cc4c2CCC4)CCC3)cc1CN(C)CC1(CO)CCC1 [Example 34, N-((1,2,3,5,6,7-hexahydro-s-indacen-4-yl)carbamoyl)-4-((((1-(hydroxymethyl)cyclobutyl)methyl)(methyl)amino)methyl)-5-methylfuran-2-sulfonamide] | 5 to 50
11 | Cc1oc(S(=O)(=O)NC(=O)Nc2c3c(c(F)c4c2CCC4)CCC3)cc1CN(C)CC1(CO)CCC1 [Example 47, N-((8-fluoro-1,2,3,5,6,7-hexahydro-s-indacen-4-yl)carbamoyl)-4-((((1-(hydroxymethyl)cyclobutyl)methyl)(methyl)amino)methyl)-5-methylfuran-2-sulfonamide] | 5 to 50
12 | Cc1oc(S(=O)(=O)NC(=O)Nc2c3c(c(F)c4c2CCC4)CCC3)cc1CN1C[C@@H](F)[C@@H](O)C1 [Example 40, N-((8-fluoro-1,2,3,5,6,7-hexahydro-s-indacen-4-yl)carbamoyl)-4-(((3R,4S)-3-fluoro-4-hydroxypyrrolidin-1-yl)methyl)-5-methylfuran-2-sulfonamide] | 5 to 50
13 | CC(C)(O)c1cc(S(=O)(=O)NC(=O)Nc2c3c(cc4c2CCC4)CCC3)oc1CN1CCNCC1 [Example 70, N-((1,2,3,5,6,7-hexahydro-s-indacen-4-yl)carbamoyl)-4-(2-hydroxypropan-2-yl)-5-(piperazin-1-ylmethyl)furan-2-sulfonamide] | 5 to 50
14 | Cc1cc(S(=O)(=O)NC(=O)Nc2c3c(c(F)c4c2CCC4)CCC3)oc1CN1C[C@@H](O)[C@@H](F)C1 [Example 53, N-((8-fluoro-1,2,3,5,6,7-hexahydro-s-indacen-4-yl)carbamoyl)-5-(((38,4R)-3-fluoro-4-hydroxypyrrolidin-1-yl)methyl)-4-methylfuran-2-sulfonamide] | 5 to 50
15 | CN(Cc1cc(S(=O)(=O)NC(=O)Nc2c3c(c(F)c4c2CCC4)CCC3)nn1C)CC1(CO)CCOCC1 [Example 64, N-((8-fluoro-1,2,3,5,6,7-hexahydro-S-indacen-4-yl)carbamoyl)-5-((((4-(hydroxymethyl)tetrahydro-2H-pyran-4-yl)methyl)(methyl)amino)methyl)-1-methyl-1H-pyrazole-3-sulfonamide] | 50 to 500
16 | CC(C)n1nc(S(=O)(=O)NC(=O)Nc2c3c(c(Cl)c4c2CCC4)CCC3)cc1CN(C)CC1(O)CCC1 [Example 69, N-((8-chloro-1,2,3,5,6,7-hexahydro-s-indacen-4-yl)carbamoyl)-5-((((1-hydroxycyclobutyl)methyl)(methyl)amino)methyl)-1-isopropyl-1H-pyrazole-3-sulfonamide] | 5 to 50

The remaining lines, values ahead:

Row | IC50 [nM] | SMILES
17 | 5 to 50 | CN(C(=O)c1coc(S(=N)(=O)NC(=O)Nc2c3c(cc4c2CCC4)CCC3)c1)[C@H]1C[C@H](O)C1 (some centres unmarked) [Example 15, 5-(N-((1,2,3,5,6,7-hexahydro-s-indacen-4-yl)carbamoyl)sulfamidimidoyl)-N-((1r,3r)-3-hydroxycyclobutyl)-N-methylfuran-3-carboxamide]
18 | 5 to 50 | Cc1oc(S(=O)(=O)NC(=O)Nc2c3c(c(F)c4c2CCC4)CCC3)cc1CN(C)CC1(CO)CCOCC1 [Example 46, N-((8-fluoro-1,2,3,5,6,7-hexahydro-s-indacen-4-yl)carbamoyl)-4-((((4-(hydroxymethyl)tetrahydro-2H-pyran-4-yl)methyl)(methyl)amino)methyl)-5-methylfuran-2-sulfonamide]
19 | 5 to 50 | CN(Cc1cc(S(=O)(=O)NC(=O)Nc2c3c(c(F)c4c2CCC4)CCC3)nn1C)CC1(CO)CCC1 [Example 65, N-((8-fluoro-1,2,3,5,6,7-hexahydro-s-indacen-4-yl)carbamoyl)-5-((((1-(hydroxymethyl)cyclobutyl)methyl)(methyl)amino)methyl)-1-methyl-1H-pyrazole-3-sulfonamide]
20 | 5 to 50 | N=S(=O)(NC(=O)Nc1c2c(cc3c1CCC3)CCC2)c1cc(CN)co1 (centres unmarked) [Example 22, 4-(aminomethyl)-N-((1,2,3,5,6,7-hexahydro-s-indacen-4-yl)carbamoyl)furan-2-sulfonimidamide]
21 | 5 to 50 | Cc1cc(S(=O)(=O)NC(=O)Nc2c3c(c(F)c4c2CCC4)CCC3)oc1CN1CC[C@@H](O)C1 [Example 52, (R)-N-((8-fluoro-1,2,3,5,6,7-hexahydro-s-indacen-4-yl)carbamoyl)-5-((3-hydroxypyrrolidin-1-yl)methyl)-4-methylfuran-2-sulfonamide]
22 | 5 to 50 | Cc1cc(S(=O)(=O)NC(=O)Nc2c3c(c(F)c4c2CCC4)CCC3)oc1CN1C[C@@H](F)[C@@H](O)C1 [Example 55, N-((8-fluoro-1,2,3,5,6,7-hexahydro-s-indacen-4-yl)carbamoyl)-5-(((3R,4S)-3-fluoro-4-hydroxypyrrolidin-1-yl)methyl)-4-methylfuran-2-sulfonamide]
23 | < 5 | CC(C)n1nc(S(=O)(=O)NC(=O)Nc2c3c(c(F)c4c2CCC4)CCC3)cc1CN(C)CC1(O)CCC1 [Example 66, N-((8-fluoro-1,2,3,5,6,7-hexahydro-s-indacen-4-yl)carbamoyl)-5-((((1-hydroxycyclobutyl)methyl)(methyl)amino)methyl)-1-isopropyl-1H-pyrazole-3-sulfonamide]
